The values below come from a melting point compilation (Tetko et al.; mined from patent text by program, amines drawn as free bases though some values may be those of a salt).

The compound `ClCc1ccc2oc(-c3cccs3)nc2c1` showed a melting point of 152 to 153 °C. Turning to `CCCCC1(N(C)C)CCC(c2[nH]c3ccccc3c2CCC)CC1` (centres undefined), the melting point was 127 to 130 °C. Compound `CC1(C)C(=O)Nc2cc(-c3nc4ccccc4[nH]3)ccc21` had a melting point of 326 to 330 °C. Under `CCCCc1nc(SC2CCCCC2)c(C(=O)O)n1Cc1cc2c(cc1Cl)OCO2` stands 257 °C; under `FC(F)(F)CCN1CCN(Cc2ccc3c(c2)-c2[nH]nc(-c4ccsc4)c2C3)CC1`, 195 to 200 °C.

Compound `CCOC(=O)Cc1c(C(=O)O)c(Br)c(C(=O)c2ccc(C)cc2)n1C` showed a melting point of 183 to 185 °C. For `COC(=O)c1cc(C(=O)c2cccc(Cl)c2)n(C)c1` the value was 127 °C; for `Clc1cc(CCc2ccccn2)c2oc(-c3nccc4ccccc34)nc2c1`, 142 to 143 °C; for `COc1cc(C)c(C(O)C#CC(F)(F)F)c(C)c1C` (centres undefined), 126 to 130 °C. For `Cc1nc(C)n(-c2cc(C)c3[nH]c(=O)ccc3c2)c1I` the value was 242 to 245 °C. For `Brc1c[nH]c(CN2CCCC2)c1` the value was 96 to 99 °C; for `O=c1c2ccccc2n(CCCCN2CCC(OC(c3ccccc3)c3ccccc3)CC2)c(=O)n1CCO`, 145 to 150 °C.

Turning to `C=CCOc1cc(NC(=O)C2=C(C(=O)N(C)C)CCCC2)ccc1Cl`, the melting point is 129 to 131 °C. `O=C(NS(=O)(=O)c1ncccc1C(F)(F)F)Oc1ccccc1` yielded a melting point of 130 to 134 °C. In the case of `CC(=O)c1sc(N2CCN(CC3CC3(F)F)C2=O)nc1C` (centres undefined), the melting point lay within 146 to 148 °C. Under `COP(=O)(CC(O)c1c(C)cc(C)cc1-c1ccc(F)c(C)c1)OC` (centres undefined) stands 98 to 100 °C.

`OCc1ccc2cc(OCc3ccccc3)ccc2c1` had a melting point of 130 to 132 °C. For the compound `CN1c2ccccc2Sc2cc(C=Cc3ccc(-c4ccc(C=Cc5ccc6c(c5)Sc5ccccc5N6C)cc4)cc3)ccc21`, the melting point came out at 380 °C.

In turn, `COc1ccc(CN(C)CCCc2ccc(NC(=O)c3cccc4c(=O)c5ccccc5[nH]c34)cc2)cc1OC` showed a melting point of 112 °C. In turn, `O=c1c(-c2ccccn2)c(O)c2cccnc2n1-c1ccccc1` came in with a melting point of 332 to 333 °C. Take `CCCCCCC1=CC(O)(C(Br)Br)N(CCCC)C1=O` (centres undefined): the melting point was 85 to 86 °C. In turn, `CCOC(=O)Cc1ccc(Nc2ccnc(Nc3cc(OC)c(OC)c(OC)c3)n2)cc1` displayed a melting point of 143 to 144 °C.

The compound `Cc1nc2cccnc2nc1S(=O)Cc1ccccn1` (centres undefined) registered a melting point of 120 to 125 °C.

In the case of `CSC(=O)N(C)c1nnc(-c2cccnc2)s1`, the melting point fell in the range of 192 to 194 °C.

On to `c1cnn(-c2ccnc(-n3cccn3)n2)c1`, for which the melting point was 152 to 153 °C.

Compound `N=C(N)N(CCCCc1ccc(OCC(=O)Nc2ccccc2)cc1)C(=O)c1nc(Cl)c(N)nc1N` had a melting point of 168 to 170 °C.

In the case of `O=C(C#CCCc1cccc(CF)n1)Nc1ccc(F)cc1`, the melting point was 110 °C. For `CCCCCCCN(CCCCCSc1nc2c([nH]1)CCCC2)C(=O)Nc1ccc(F)cc1F` the value was 98 to 100 °C.

`NC(=O)c1ncc(Cl)cc1F` returned a melting point of 162 to 164 °C.

On to `N#Cc1ccc(N(Cc2ccc(OCc3ccccc3)cc2)n2cnnc2)cc1`, for which the melting point lay in the range of 206 to 211 °C.

As to `CC(Nc1nc2ccc(Cl)cc2cc1C(=O)O)C(=O)Nc1ccc2ccccc2c1` (centres undefined), the melting point lay in the range of 230 to 243 °C. In turn, `O=S(=O)(Cc1cn(C23CC4CC(CC(C4)C2)C3)nn1)c1cc(Cl)ccc1Cl` displayed a melting point of 198 to 199 °C. Compound `COc1cc(C2CCN(CC(O)CF)CC2)ccc1Nc1ncc2ccc(-c3ccccc3N(C)S(C)(=O)=O)n2n1` (centres undefined) returned a melting point of 82 to 95 °C. Compound `NC(=O)[C@@H]1[C@H](Nc2c(Cl)cnc3[nH]c(-c4cnn(C5CCNCC5)c4)nc23)[C@H]2C=C[C@@H]1C2` showed a melting point of 203 to 205 °C.

The compound `O=c1[nH]c2cc(Cl)ccc2c(O)c1-c1ccccc1Br` gave a melting point of 357 to 358 °C.

As to `COc1ccc(Cn2nc(CO)c3cc(OC)c(OC)cc32)cc1OC`, the melting point was 187 °C. Under `CO[C@@H]1CC[C@@H](NC(C)=O)c2ccccc21` (relative stereo) stands 97 to 100 °C; under `C=CCNC(=O)c1ccccc1I`, 105 to 106 °C. For `O=C(O)c1cccc2c1CCc1ccccc1S2` the value was 186 to 187 °C; for `O=C(CC1CN2C(=O)CC2O1)OC(c1ccccc1)c1ccccc1` (centres undefined), 64.1 to 64.9 °C. Compound `O=C1N(Cc2ccc(NC=NO)nc2)c2ccccc2C12COc1cc3c(cc12)OCCO3` (centres undefined) displayed a melting point of 231 to 232 °C. With `COc1cccc(Nc2ncc3cc(-c4c(Cl)cccc4Cl)c(=O)n(C)c3n2)c1`, the melting point lay within 203 to 204 °C. For `C[Si](C)(C)C#CCn1nc(-c2ccc(F)c(Br)c2)ncc1=O` the value was 103 to 105 °C; for `O=[N+]([O-])c1ccccc1NCC(F)(F)F`, 84 to 89 °C. For `Cc1ccccc1-n1ccc(=O)c(-c2ccnn2-c2ccccc2)n1` the value was 120 to 121 °C; for `CC(=O)c1ccc(NC(=O)c2cc(Cl)cc(Cl)c2)cc1`, 199 to 200 °C. The compound `O=C(O)c1ccc(OCCCCCCC2CC2)c(F)c1F` yielded a melting point of 100 to 108 °C.

As for `COC(=O)C(=O)c1cc2c3c(c1)CCN3CCC2`, the melting point was 102 to 105 °C. `NCC1Cc2cc(-c3ccccc3)cc(-c3ccccc3Cl)c2O1` (centres undefined) registered a melting point of over 250 °C. Under `Cc1cc(Cc2cnc(Cl)nc2Cl)c2cccnc2c1N` stands 209 to 211 °C; under `CCNC(=O)[C@H]1N(C(=O)[C@@H](OC(C)=O)[C@H](Cc2ccccc2)NC(=O)c2cc(C)cc(OC(C)=O)c2C)CC(F)(F)C1(C)C`, 88 to 93 °C; under `Oc1cc2c(cc1O)-c1cc3cc(O)c(O)cc3nc1CC2`, over 220 °C. The compound `CC1(C)CCC(C)(C)c2cc(NCC(=O)O)ccc21` returned a melting point of over 360 °C.

The compound `Nc1c([N+](=O)[O-])cc(Br)c2c1CN(Cc1ccccc1)CC2` displayed a melting point of 150 to 152 °C.

The compound `CCOC(=O)c1cc(CC)sc1Nc1cc(F)cc(F)c1[N+](=O)[O-]` yielded a melting point of 74 to 75 °C. Under `O=C(O)C=Cc1ccccc1NC(=O)c1ccc(OCCCCc2ccccc2)cc1` stands 129 to 131 °C. With `NC(=O)CN1C[C@@H]2CCC[C@@H]2C1=O` (relative stereo), the melting point lay in the range of 138 to 141 °C. Compound `CCOC(=O)c1ccc(-c2nc(CCl)c(C)o2)s1` registered a melting point of 101 to 102 °C.

Turning to `CCOC(=O)Cc1c(C)n(-c2ncnc3cc(Cl)ccc23)c2ccc(OC)cc12`, the melting point lay in the range of 103 to 105 °C. Under `CC(C)(C)OC(=O)CN(C(=O)CNC(=O)c1ccc(Cl)c(Cl)c1)c1ccccc1` stands 95 °C; under `O=C(c1c(-c2ccccc2)oc2ccccc2c1=O)N1CCN(c2ccccn2)CC1`, 178 to 181 °C; under `CS(=O)(=O)Nc1cccc([N+](=O)[O-])c1`, 237 °C. Under `Cc1cc(C)cc(NS(=O)(=O)c2ccc(N3CCNC3=O)cc2)c1` stands 216 to 218 °C. Compound `CCOC(=O)c1cn(C2CC2)c2c(C)c(N3CCN(C)CC3)c(F)c(C)c2c1=O` returned a melting point of 146 to 147 °C. `CC(C)(C)OC(=O)N1CCCCC1c1c[nH]c2ncccc12` (centres undefined) showed a melting point of 144 to 145 °C. Under `Cc1ccc2c(c1)COC21CCN(CCCCCCN2CCC3(CC2)OCc2cc(C)ccc23)CC1` stands 113 to 116 °C. Under `CC(C)(C)c1cccc(S(=O)(=O)n2c(C(=O)c3ccc(C(=O)O)s3)cc3cc(C(F)(F)F)ccc32)c1` stands 217 °C; under `CCOc1cccc(CN2CCc3cc(O)c(OC)cc3C2)c1`, 105 to 106 °C. Compound `Cc1cc(O)c(C(C)(C)C)cc1N` came in with a melting point of 191 to 192 °C. `Cn1ncc2c(=O)n3c(nc21)SCCC3` registered a melting point of 179 to 180 °C. Under `O=C1NC(=O)C(Cc2ccc(S(=O)(=O)CCCc3ccccc3)cc2)S1` (centres undefined) stands 126 to 127 °C; under `Cc1c(N2CCC(N)C2)c(F)cc2c(=O)c(C(=O)O)cn(C3CC3)c12` (centres undefined), 187 to 190 °C; under `O=C(Nc1ccc(F)c(Cl)c1F)C(F)(F)F`, 73 to 74 °C. In the case of `CCOc1ccc(C(=O)Nc2ccc3ccc(OC)nc3n2)cc1`, the melting point turned out to be 145 °C. For `CC(C)(C)n1nc(-c2ccc(C(F)(F)F)cc2)c(C#N)c1N` the value was 155 to 156 °C; for `CSc1nc(NN)c(C#N)c(N2CCc3ccccc3CC2)n1`, over 200 °C; for `Cc1ccc2c(c1)NC(=O)c1cc(C)sc1O2`, 175 to 179 °C. The compound `CCCCCCCCOC(=O)Oc1ccc(-c2ccc(C#N)cc2)cc1` displayed a melting point of 51.6 °C. The compound `O=C1c2ccccc2C(=O)N1C(O)C1OC(n2ccc(=O)[nH]c2=O)CC1O` (centres undefined) displayed a melting point of 241 to 242 °C. For `COc1cc2nc(N3CCN(C(=O)CC(=O)c4ccccc4)CC3)nc(N)c2cc1OC` the value was 214 to 215 °C; for `COCCN1CCN(CC2CCN(c3ccc(Cl)cc3)C2=O)CC1` (centres undefined), 103 to 105 °C. For `N#Cc1ccc(OCc2cccnc2)cc1OC(CCC(=O)O)c1cccc2c1OCO2` (racemic) the value was 181 to 183 °C. Under `CC(=O)Nc1ccc(OCC2CCCC(OC(CCn3ccnc3)c3ccc(F)cc3)O2)cc1` (centres undefined) stands 133 to 135 °C; under `Cc1ccc(C(=O)COc2cc(C)cc(C)c2C)nc1`, 94 to 95 °C; under `N#CCCNC(=O)c1cccc(-c2ccc3ccn(Cc4ccc(Cl)cc4Cl)c3n2)c1`, 186 to 187 °C. For the compound `O=C(O)c1ccnc(-c2cccc3cc(Cc4cc(F)cc(Cl)c4)sc23)c1`, the melting point lay in the range of 205 to 206 °C. In the case of `Cc1ccc(N2C(=O)C(O)=C(C(=O)c3ccc(C(C)C)cc3)C2c2ccc(OCCN3CCOCC3)cc2)nn1` (centres undefined), the melting point came out at 256 °C. Consider `Cc1cc2ccccc2c(-c2ccc(I)cc2)n1`, for which the melting point fell in the range of 146 to 147 °C.

Regarding `Cc1nn(C)c2nc3ccccc3c(NCc3ccccc3)c12`, the melting point came out at 105 °C.
